Entries after “also recorded” stand apart in the source; their conditions may differ.
Key:
human subjects = test: Cerebral blood flow after a single dose of clenbuterol and/or nadolol, or pindolol (Example 1); assay type: in vivo
subjects = test: Visual verbal learning test (VVLT); assay type: in vivo, human; conditions: for effect on the VVLT (learning and memory): crossover study, 3 agents plus placebo
Experimental: Subjects are presented 30 words on a screen, one at a time, for 1 second with a 1-second interval between words over a total of 1 minute. This is repeated in 3 trials. After each trial, subjects are asked to recall as many words as they can. […] Since this was a crossover study, everyone who completed Part A was dosed with the 3 agents plus placebo.

healthy subjects [1] = test: Cerebral perfusion by ASL MRI after single doses of clenbuterol (Example 3); assay type: in vivo, human
Experimental: In a clinical study, healthy subjects were administered doses of clenbuterol ranging from 20 to 160 μg and ASL MRI was conducted prior to and after dosing with an objective to ascertain whether this neuroimaging method enables the detection of a clinically relevant CNS signal.
In a region of interest (ROI) analysis focusing on the hippocampus, which is well understood to be affected in neurodegenerative disorders, a single dose of 80 μg of clenbuterol causes a robust increase in perfusion (see FIG. 7). […] Our hypothesis is that by improving cerebral perfusion, particularly in areas of the brain that are relevant for symptoms that are commonly found in neurodegenerative diseases such as PD and AD, the administration of a β-AR agonist (such as a β-agent) will have a positive effect on clinically relevant symptoms such as memory and cognition.

subjects with MCI or PD = test: Cerebral blood flow by ASL MRI in subjects with MCI or PD (Example 6); assay type: in vivo, human; conditions: for CBF MRD in the hippocampus, repeat dose comparison: 80 μg clenbuterol without nadolol; for CBF mean (±SEM) MRD in hippocampus / CBF mean (±SEM) MRD in whole brain: Day 9, N=4
healthy subjects [2] = test: Adaptive tracking test; assay type: in vivo, human; conditions: single dose 160 μg clenbuterol
Text: Adaptive tracking measures visuomotor coordination and vigilance. In this test, the subject uses a joystick to move a small dot so that it stays within a continuously moving circle on a computer screen (Boland 1984). During the test, the speed of the circle is adjusted in response to the subject's ability to keep the dot in the circle, ensuring that the test is adapted to the individual subject. […] The improvement shown by subjects is in the same range as that seen with subjects treated with the acetylcholinesterase inhibitor donepezil, which is in clinical use for the treatment of mild to moderate AD (Groeneveld 2016).

healthy subjects [3] = test: Cognitive performance, CuraSen study CLIN-003; assay type: in vivo, human; conditions: daily dose of 80 μg CST-103, healthy subjects, preliminary data
Text: (§1) It was hypothesized that by improving cerebral perfusion, particularly in areas of the brain that are relevant for symptoms that are commonly found in PD and MCI, the administration of a β-AR agonist would have a positive effect on clinically relevant symptoms such as memory and cognition.

[4] = ASL MRI cerebral perfusion, CuraSen study CLIN-002; assay type: in vivo; conditions: CST-103 80 and 160 μg
Text: as §1

[5] = system: healthy volunteers and subjects with MCI or PD; test: Safety and tolerability (TEAEs, heart rate, blood pressure, labs), Example 6; conditions: for mean increase in supine heart rate from baseline: no nadolol
Experimental: (§5) Safety and tolerability were evaluated by questioning for adverse events (AEs), triplicate 12-lead ECGs, laboratory safety tests on urine and blood with multiple chemistry panels including potassium, blood glucose levels, vital sign measurements, and physical examinations at regular time-points during the study.

healthy volunteers [6] = test: Cerebral blood flow by ASL MRI in healthy volunteers (Example 6)
Experimental: In the 4 cohorts of healthy volunteers, study drug was administered as follows:
All subjects received single oral dose of 20 μg clenbuterol on Day 1, and a single oral dose of 40 μg clenbuterol on Day 8, with ASL MRI scans before and 3 hours after dosing on both days.
All subjects received a single oral dose of 80 μg clenbuterol on Day 1, with ASL MRI scans before, and 3 hours 1 day and 2 days after clenbuterol administration to evaluate the longevity of the ASL MRI signal
ASL MRI scans were conducted before and 3 hours after clenbuterol administration on Day 1 and Day 7.
ASL MRI scans were conducted before and 3 hours after clenbuterol administration on Day 2 and Day 9.
All scans were conducted using pseudo continuous ASL MRI. Only subjects with no contraindications to being in a strong magnetic field were evaluated by MRI. Participants were positioned comfortably and supine in the head coil to minimize any motion during the scan with proper back support, and support under the knees for comfort and to reduce motion in the scan, and the head was centered in the head coil and velcro straps or foam padding were used to reduce motion.
Imaging was performed on a GE Signa PET-MR 3T system.
For accurate quantitative measurements of brain structures a high-resolution T1-weighted, 3D volumetric sequences (e.g., MP-RAGE, IR-FSPGR) in the sagittal plane. Scan parameters of the pCASL sequence were: straight axial/transversal slices, labeling duration=1.8s, post-labeling delay=2.0 s, 15-20 cm slab thickness, pCASL average labeling gradient 1 mT/m, pCASL slice selective labelling gradient 10 mT/m, pASL TI1 (QUIPSS II Saturation Time) 800 ms, pASL labeling slab thickness 15-20 cm, 70 volumes, spatial resolution 3 mm in-plane/5 mm through-plane/gap 1 mm, 3D RARE stack-of-spiral or 3D GRASE 4-15 ms readouts, turbo-factor of 8 to 12; echo train of up to 300 ms, 2D EPI Single shot, minimum echo time, and duration 5 min.
Multiple ROIs were evaluated including whole brain, cortex, subcortical, thalamus, amygdala, hippocampus, and cerebellum which were chosen due to their relevance for cognition or alertness, and the periaqueductal grey for its relevance to motor control. Grey matter (GM) masking was applied for reporting of CBF in the GM of these ROIs.
Regional mean CBF values were extracted for each ROI and subsequently, the CBF for each region was compared before and after administration of clenbuterol.
Baseline/Predose versus Postdose change (%) for each subject and each region was calculated as 100*(Postdose_CBF−Baseline_CBF)/(Baseline_CBF). For each region, the cohort summary of CBF change (=mean relative displacement, MRD) was described by the group mean and standard deviation of the individual CBF changes.

[7] = Plasma pharmacokinetics of clenbuterol and nadolol (Example 6); conditions: human, in vivo
Text: (§6) Pharmacokinetic (PK) parameters were computed from the individual plasma drug concentrations using a non-compartmental approach.

[8] = Prior CuraSen studies of low-dose nadolol (CST-107) on peripheral β2-AR agonist effects; conditions: 1 mg nadolol (CST-107), co-administered with 80 μg CST-103
[9] = system: healthy volunteers and subjects with MCI or PD; conditions: in vivo
Experimental: as §5

clinical = conditions: human, in vivo; for Cmax: po
Text: as §6

healthy volunteers [10] = test: Peripheral effects of Compound 03-5 (heart rate, glucose, potassium, tachycardia, tremor, palpitations) with nadolol; assay type: in vivo, human
Experimental: Data are presented as individual observations for all available subjects.
(§2) On all dosing days, study drug(s) were administered orally after an overnight fast of at least 8 hours.
(§3) Routine measures of ECG, vital signs, safety labs, physical exams and plasma sample collections for analysis of drug pharmacokinetics (PK) were undertaken according to the Schedule of Events (Table 1).
(§4) In Cohort D2, 8 healthy volunteers aged 55-75 years were admitted on Day −1 for a 5-day confinement period at the research facility. […] Subjects remained in-residency until all study procedures are completed on Day 4. • ? Compound 03-5 dose administration. Compound 03-5 was administered as escalating doses on Day 1 (1 mg), Day 2 (3 mg) and Day 3 (10 mg). CANTAB was conducted twice in all subjects on the day prior to start of dosing (Day −1) to familiarize subjects with the platform, and prior to dosing and approximately 3 hours after Compound 03-5 administration on Days 1, 2, and 3.

healthy volunteers [11] = test: Heart rate by triplicate ECG, Compound 03-5 with or without nadolol; assay type: in vivo, human; conditions: 6 mg Compound 03-5 after pre-administration of 1 mg nadolol
Experimental: Heart rate was measured by triplicate ECG recordings. Data are presented as means changes from time-matched measures recorded on the day before the first dose of study drug (Day −1).
as §2, §3

[12] = system: healthy volunteers aged 55-75 years; test: CANTAB cognition battery, Cohort D2; assay type: in vivo, human; conditions: Compound 03-5 1, 3, 10 mg once daily, 2 h after 3 mg nadolol
Experimental: Data are presented as mean changes from the within-day pre-dose assessment.
as §4

[13] = doses of 80 and 160 μg clenbuterol
[14] = 80 μg clenbuterol, absence of nadolol
[15] = 80 μg clenbuterol, presence of 1 mg nadolol

Compound: CC(C)(C)NCC(O)c1cc(Cl)c(N)c(Cl)c1 (stereo not drawn) [clenbuterol]
- cerebral blood flow (CBF) relative to baseline (human subjects; single dose clenbuterol 160 μg): robust global increase in cerebral blood flow (CBF); also recorded: positive increase in cerebral blood flow
- cerebral blood flow (CBF) relative to baseline (human subjects; single dose clenbuterol 160 μg and nadolol 5 mg): robust global increase in cerebral blood flow (CBF)
- cerebral blood flow (CBF) relative to baseline (human subjects; single dose clenbuterol 30 to 160 μg (nadolol 5 mg in some subjects), tracked 3 days): robust global increase in cerebral blood flow (CBF)
- effect on the VVLT (learning and memory) (subjects): positive effects on the VVLT
- VVLT improvement in correctly recalled words (subjects; immediate and delayed recall, crossover study vs placebo): 1.5 to 2 correctly recalled words
- cerebral perfusion as measured by CBF (healthy subjects [1]; clenbuterol dose of 40 μg): minimal increase
- cerebral perfusion as measured by CBF (healthy subjects [1]; clenbuterol doses below 30 μg): do not produce significant cerebral perfusion increases
- improvements in perfusion in brain areas relevant to neurodegenerative disorders (healthy subjects [1]; [13]): ~25%
- increases in cerebral perfusion in hippocampus and thalamus (healthy subjects [1]; [13]): 20% to 25
- increase in hippocampal perfusion, average (healthy subjects [1]; single dose 80 μg clenbuterol, 6 healthy subjects aged 44-52): 25%
- cerebral perfusion (ASL MRI) (healthy subjects [1]; single dose 160 μg clenbuterol, healthy subjects): robust global increase in cerebral perfusion
- CBF MRD in the hippocampus, repeat dose comparison (subjects with MCI or PD; Day 2, 4 subjects): 17.55±6.37%
- CBF MRD in the hippocampus, repeat dose comparison (subjects with MCI or PD; Day 9, 4 subjects): 14.72±10.56%
- CBF mean (±SEM) MRD in hippocampus (subjects with MCI or PD; [14]): 14.7±10.6%
- CBF mean (±SEM) MRD in whole brain (subjects with MCI or PD; [14]): 4.8±12.6%
- CBF mean (±SEM) MRD in hippocampus (subjects with MCI or PD; [15]): 12.5±5.7%
- CBF mean (±SEM) MRD in whole brain (subjects with MCI or PD; [15]): 5.9±8.6%
- CBF in multiple brain regions incl. hippocampus and thalamus (subjects with MCI or PD; 80 μg clenbuterol, with and without pre-administration of 1 mg nadolol): Significant increases in CBF
- performance in adaptive tracking (percent time dot kept within moving circle) (healthy subjects [2]): improved adaptive tracking; also recorded: performance in adaptive tracking improves
- cognition as measured by adaptive tracking and word recall (healthy subjects [2]; healthy subjects, preliminary data): improves cognition
- cognitive performance (healthy subjects [3]): improves cognitive performance
- cerebral perfusion (ASL MRI) [4]: robust global increase in cerebral perfusion
- increase in cerebral perfusion in the hippocampus [4]: up to 28%
- increase in cerebral perfusion in the thalamus [4]: up to 15%
- decrease in heart rate from baseline ([5]; 3 hours after 160 μg clenbuterol with pre-administration of 5 mg nadolol): 2.75 bpm
- overall safety and tolerability ([5]; all subjects): overall safe and well tolerated
- severity of TEAEs ([5]; all subjects enrolled): mild-to-moderate
- effects on supine, sitting or standing blood pressure ([5]; clenbuterol in the absence or presence of nadolol): no clinically meaningful effects
- subjects with TEAEs considered related to clenbuterol ([5]; healthy volunteers): 12/25
- mean increase in supine heart rate from baseline ([5]; healthy volunteers, 3 hours after 20 μg clenbuterol): 7.5 bpm
- mean increase in supine heart rate from baseline ([5]; healthy volunteers, 3 hours after 40 μg clenbuterol): 7.5 bpm
- mean increase in supine heart rate from baseline ([5]; healthy volunteers, 3 hours after 80 μg clenbuterol): 9.2-12.38 bpm
- mean increase in supine heart rate from baseline ([5]; healthy volunteers, 3 hours after 160 μg clenbuterol): 30.5 bpm
- increase in heart rate ([5]; subjects with MCI or PD, 80 μg clenbuterol): 10.67-14.65 bpm
- subjects with TEAEs considered related to clenbuterol ([5]; subjects with neurodegenerative disease): 6/8
- CBF mean (±SEM) percent relative displacement (MRD) from baseline in the hippocampus (healthy volunteers [6]; 20 μg clenbuterol, no nadolol (first value of the list)): −1.7±1.3%
- CBF mean SEM MRD from baseline (healthy volunteers [6]; 160 μg clenbuterol about 2.5 h after 5 mg nadolol (Day 9)): 14.0±6.5%
- CBF mean (±SEM) percent relative displacement (MRD) from baseline in the hippocampus (healthy volunteers [6]; 160 μg clenbuterol in the absence of nadolol): 28.5±4.1%
- CBF by ASL MRI (healthy volunteers [6]; 20, 40, 80 and 160 μg clenbuterol, absence of nadolol): dose-dependent increase in CBF
- CBF change from baseline (healthy volunteers [6]; 3 hours after single dose of 80 μg clenbuterol): increases in CBF from baseline are evident
- CBF change from baseline (healthy volunteers [6]; 24 hours after single dose of 80 μg clenbuterol): decreased but still evident
- CBF change from baseline (healthy volunteers [6]; 48 hours after single dose of 80 μg clenbuterol): returned to baseline
- half-life [7]: 12 to 31 h

Compound: CC(C)(C)NCC(O)COc1cccc2c1CC(O)C(O)C2 (stereo not drawn) [nadolol]
- attenuation of peripheral β2-AR agonist effects (heart rate, palpitations, tremors, potassium, glucose) [8]: could attenuate these peripheral effects; also recorded: sufficient to inhibit peripheral β2-AR agonist mediated effects
- increase in heart rate after 80 μg clenbuterol [9]: effectively blocked
- TEAEs considered related to nadolol ([5]; all subjects enrolled): No TEAEs
- side effects of β2-agonist (increased heart rate, tremor, palpitations) ([5]; pre-administration of nadolol): mostly eliminated
- half-life (clinical): 7 to 13 h
- Cmax (clinical; 1 mg): 1 to 1.5 ng/mL
- Cmax (clinical; 4 mg): 2.8 to 4 ng/mL
- effect of nadolol on Compound 03-5 increase in heart rate and other peripheral effects (hyperglycemia, hypokalemia) (healthy volunteers [10]; Cohort D1, 1 mg nadolol pre-administered, Compound 03-5 orally up to 6 mg): substantially attenuated
- effect of nadolol on peripheral effects of Compound 03-5 (heart rate, glucose, potassium, tachycardia, tremor, palpitations) (healthy volunteers [10]; Cohort D1, nadolol 1 mg up to 40 mg pre-administered, Compound 03-5 3-12 mg): blocked the peripheral effects
- effect of nadolol on peripheral effects of Compound 03-5 on heart rate, etc. (healthy volunteers [10]; Cohort D2, nadolol 3 mg pre-administered, Compound 03-5 1-10 mg): similarly blocked the peripheral effects
- effects of Compound 03-5 on blood glucose and potassium, tachycardia, tremor and palpitations (healthy volunteers [10]; pre-administration of 1 mg nadolol, 6 mg Compound 03-5): Concomitant attenuation
- hypokalemia caused by Compound 03-5 (healthy volunteers [10]; subjects dosed with nadolol 1-40 mg, Cohorts D1 and D2): attenuation of hypokalemia

Compound: CC(C)NCC(O)COc1cccc2[nH]ccc12 (stereo not drawn) [pindolol]
- effect on the VVLT (learning and memory) (subjects): detrimental effect

Compound: CC(C)(C)NC[C@H](O)c1cccc(C#N)n1 [Compound 03-5, (S)-6-(2-(tert-butylamino)-1-hydroxyethyl)picolinonitrile]
- mean maximum increase in heart rate (healthy volunteers [11]): 7 beats per minute
- performance in the CANTAB cognition battery [12]: improvements in performance in the CANTAB cognition battery were observed
- hypokalemia (blood potassium levels) (healthy volunteers [10]; Compound 03-5 monotherapy 0.3 mg-6 mg, Cohorts A1-A5): Dose-dependent increases in hypokalemia

Compound: CC(C)(C)NCC(O)c1ccc(O)c(CO)c1 (stereo not drawn) [salbutamol]
- effect on the VVLT (learning and memory) (subjects): positive effects on the VVLT
